Literature values in patent US20240374689A1 (Longevity Biotech, Inc., priority 2010, published 2024).

Conditions: in humans

## GLP-1
  plasma half-life: 2 min
